Broadly, the IC50 is the point on the concentration scale where inhibition reaches its midpoint.

Twelve compounds from ChEMBL document CHEMBL1129134, “DNA threading agents: effect of sidechain bulk on DNA binding and cytotoxicity of 9-anilinoacridine-4-carboxamides” (Bioorg Med Chem Lett, 1996) can be followed below.

The subject of this experiment is HT-29. Put plainly: Compound was tested for biological activity against human colon carcinoma cell line HT-29/219. Type of experiment: functional, cell-based.
In turn, `COc1cc(NS(C)(=O)=O)ccc1Nc1c2ccccc2nc2c(C(=O)NC3CCCCCCCCCCC3)cccc12` yielded an IC50 of 3.3 µM.
In turn, `COc1cc(NS(C)(=O)=O)ccc1Nc1c2ccccc2nc2c(C(=O)NC3CC3)cccc12` displayed an IC50 of 3.6 µM.
`Nc1c2ccccc2nc2c(C(=O)NC3CCCCCCCCCCC3)cccc12` displayed an IC50 of 7.7 µM.
As to `COc1cc(NS(C)(=O)=O)ccc1Nc1c2ccccc2nc2c(C(=O)NCCN(C)C)cccc12`, the 50% inhibitory concentration (IC50) worked out at 0.061 µM.
`Nc1c2ccccc2nc2c(C(=O)NC3CC3)cccc12` had an IC50 of 5.8 µM.
`COc1cc(NS(C)(=O)=O)ccc1Nc1c2ccccc2nc2c(C(=O)NC34C[C@H]5C[C@@H](C3)C[C@@H](C4)C5)cccc12`: half-maximal inhibition (IC50) required 9.8 µM.
As for `Nc1c2ccccc2nc2c(C(=O)NC3CCCCCCC3)cccc12`, the figure is 5.2 µM; as for `COc1cc(NS(C)(=O)=O)ccc1Nc1c2ccccc2nc2c(C(=O)NC3CCCCC3)cccc12`, 4.7 µM.
In turn, `Nc1c2ccccc2nc2c(C(=O)NC3CCCCC3)cccc12` returned a half-inhibitory concentration (IC50) of 5.6 µM.
`CN(C)CCNC(=O)c1cccc2c(N)c3ccccc3nc12` gave an IC50 of 0.14 µM.
In turn, `COc1cc(NS(C)(=O)=O)ccc1Nc1c2ccccc2nc2c(C(=O)NC3CCCCCCC3)cccc12` came in with an IC50 of 5.8 µM.
Compound `Nc1c2ccccc2nc2c(C(=O)NC34C[C@H]5C[C@@H](C3)C[C@@H](C4)C5)cccc12` came in with an IC50 of 0.57 µM.
